The term EC50 denotes the concentration giving half of the maximal effect.

The source of these data is patent US12252524B2, “GIP/GLP1 co-agonist compounds” (Eli Lilly and Company, priority 2018, dated 2025).

Numbered stars: 1 amine (or outer) side, 2 acyl side, 3 side chain; on linkers, the order of the positions; unused ones are H or OH. Square brackets hold non-standard residues; d marks the D form. Side chains are listed from the residue outwards. Peptide text beside a SMILES is read from it. * marks the point of attachment. C20 diacid = O=C(O)CCCCCCCCCCCCCCCCCCC(=O)*; γGlu = O=C(O)[C@H](CCC(=O)[*:2])N[*:1]; αMeY = C[C@](N)(Cc1ccc(O)cc1)C(=O)O; αMeL = CC(C)C[C@](C)(N)C(=O)O; Orn = NCCC[C@H](N)C(=O)O; AEEA = NCCOCCOCC(=O)O; Aib = CC(C)(N)C(=O)O

Assay [1] has as its target T1, human GLP-1R (Homo sapiens, UniProt P43220). As to the kind of experiment: GLP-1R HEK293 cell membrane [35S]GTPγS binding assay. It is filed as biochemical. Set-up: expressed in transfected cells; host or cells: HEK293 cells expressing human GLP-1R; membranes. The note with it: HEK293 cell membranes expressing human GLP-1R, [35S]GTPγS binding; read-out: hGLP1R GTPgS Rel EC50 nM (SEM, n). A digest of the protocol:
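Agonist-driven Gαs activation read as [35S]GTPγS ([…]) binding to receptor-expressing HEK293 membranes, 30 min at room temperature, pH 7.4. Detection by anti-Gαs immunocapture on scintillation beads; EC50 derived from four-parameter logistic concentration-response fit.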
On the technique in general: Binding of GTPγS marks nucleotide exchange on a G protein.

Assay [2] addresses T2, gastric inhibitory peptide receptor (GIPR) (Homo sapiens, UniProt P48546).
T2 sequence (P48546 22-466): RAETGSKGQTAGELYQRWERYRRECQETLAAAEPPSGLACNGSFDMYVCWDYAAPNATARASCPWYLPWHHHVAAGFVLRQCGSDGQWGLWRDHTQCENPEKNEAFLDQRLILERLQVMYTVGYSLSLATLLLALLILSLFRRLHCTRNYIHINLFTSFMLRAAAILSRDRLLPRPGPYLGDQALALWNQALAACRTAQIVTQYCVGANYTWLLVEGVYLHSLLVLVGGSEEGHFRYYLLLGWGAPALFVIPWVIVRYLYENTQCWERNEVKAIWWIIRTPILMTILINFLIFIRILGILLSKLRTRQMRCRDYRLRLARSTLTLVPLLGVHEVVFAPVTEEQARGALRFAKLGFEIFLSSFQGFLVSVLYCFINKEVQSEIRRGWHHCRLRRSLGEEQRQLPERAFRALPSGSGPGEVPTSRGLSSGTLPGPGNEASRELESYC
As to the kind of experiment: cAMP pharmacological functional assay in presence of casein, hGIPR. The assay is classed as cell-based. Conditions: HEK293 cells expressing hGIPR, 0.1% Casein, geometric mean; read-out: hGIPR cAMP Rel EC50 nM (SEM, n).

Assay [3] addresses human GLP-1 receptor (GLP-1R) (Homo sapiens, UniProt P43220). As to the kind of experiment: cAMP pharmacological functional assay in presence of casein, hGLP-1R. It is filed as cell-based. Conditions: HEK293 cells expressing hGLP-1R, 0.1% Casein, geometric mean; read-out: hGLP1R cAMP Rel EC50 nM (SEM, n).
In assay [4] the target is T1, human GLP-1R. As to the kind of experiment: GLP-1R CHO cell β-arrestin recruitment assay. The assay is classed as cell-based. Set-up: host or cells: CHO-K1 PathHunter cells, assay-ready frozen. The note with it: for EC50: CHO-K1 cells, PathHunter β-arrestin-2 recruitment, 0.1% casein, read-out: hGLP1R B-Arrestin2 Rel EC50 uM (SEM, n); for hGLP1R B-Arrestin2 % Top: normalized to GLP-1 maximum control. A digest of the protocol: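 Peptide-induced β-arrestin-2 recruitment measured by enzyme-fragment complementation luminescence after 90 min at 37 °C plus 60 min detection at RT.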
A general note: Arrestin recruitment assays detect the binding of arrestin to an activated receptor.

T1 sequence (P43220 24-463): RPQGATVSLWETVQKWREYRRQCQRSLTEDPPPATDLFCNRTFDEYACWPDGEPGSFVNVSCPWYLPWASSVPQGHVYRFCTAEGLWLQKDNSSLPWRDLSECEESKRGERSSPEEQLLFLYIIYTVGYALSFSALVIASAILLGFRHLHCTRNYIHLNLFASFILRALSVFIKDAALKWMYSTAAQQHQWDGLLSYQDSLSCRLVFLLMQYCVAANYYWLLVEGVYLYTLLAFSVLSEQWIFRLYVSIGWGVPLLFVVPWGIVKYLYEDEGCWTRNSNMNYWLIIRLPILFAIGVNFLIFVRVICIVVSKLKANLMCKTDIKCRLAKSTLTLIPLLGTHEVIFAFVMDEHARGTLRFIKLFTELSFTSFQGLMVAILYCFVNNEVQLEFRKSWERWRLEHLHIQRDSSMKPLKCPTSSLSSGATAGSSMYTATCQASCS
Chain of human GLP-1 receptor (GLP-1R) (P43220 24-463): as above

For the compound `CC[C@H](C)[C@H](NC(=O)[C@H](CC(C)C)NC(=O)[C@](C)(Cc1ccc(O)cc1)NC(=O)[C@H](CCC(=O)O)NC(=O)[C@@H](NC(=O)[C@H](Cc1ccccc1)NC(=O)[C@H](CCC(=O)O)NC(=O)C(C)(C)NC(=O)[C@H](CCC(N)=O)NC(=O)[C@H](C)NC(=O)[C@H](CCCCNC(=O)COCCOCCNC(=O)COCCOCCNC(=O)CC[C@H](NC(=O)CCCCCCCCCCCCCCCCCCC(=O)O)C(=O)O)NC(=O)[C@H](CCCCN)NC(=O)[C@H](CC(=O)O)NC(=O)[C@H](CC(C)C)NC(=O)[C@](C)(CC(C)C)NC(=O)[C@@H](NC(=O)[C@H](CO)NC(=O)[C@H](Cc1ccc(O)cc1)NC(=O)[C@H](CC(=O)O)NC(=O)[C@H](CO)NC(=O)[C@@H](NC(=O)[C@H](Cc1ccccc1)NC(=O)[C@@H](NC(=O)CNC(=O)[C@H](CCC(=O)O)NC(=O)C(C)(C)NC(=O)[C@H](N)Cc1ccc(O)cc1)[C@@H](C)O)[C@@H](C)O)[C@@H](C)CC)[C@@H](C)CC)C(=O)N[C@@H](CCC(=O)O)C(=O)NCC(=O)NCC(=O)N1CCC[C@H]1C(=O)N[C@@H](CO)C(=O)N[C@@H](CO)C(=O)NCC(=O)N[C@@H](C)C(=O)N1CCC[C@H]1C(=O)N1CCC[C@H]1C(=O)N1CCC[C@H]1C(=O)N[C@@H](CO)C(N)=O` [Example 379] (H-[dY][Aib]EGTFTSDYSI[αMeL]LDKK([AEEA-AEEA-γGlu-C20 diacid])AQ[Aib]EFIE[αMeY]LIEGGPSSGAPPPS-NH2), the concentration giving a half-maximal response (EC50) at human GLP-1R [1] was found to be 0.239 nM; in assay [2] it was 0.079 nM; in assay [3], 0.238 nM; at human GLP-1R [4], 0.0181 µM. The “hGLP1R B-Arrestin2 % Top” value at human GLP-1R [4] is 31.9%.
Regarding `CC[C@H](C)[C@H](NC(=O)[C@H](CC(C)C)NC(=O)[C@H](Cc1ccc(O)cc1)NC(=O)[C@H](CCC(=O)O)NC(=O)[C@@H](NC(=O)[C@H](Cc1ccccc1)NC(=O)[C@H](CC(=O)O)NC(=O)C(C)(C)NC(=O)[C@H](CCC(N)=O)NC(=O)[C@H](C)NC(=O)[C@H](CCCCNC(=O)COCCOCCNC(=O)COCCOCCNC(=O)CC[C@H](NC(=O)CCCCCCCCCCCCCCCCCCC(=O)O)C(=O)O)NC(=O)[C@H](CCCN)NC(=O)[C@H](CC(=O)O)NC(=O)[C@H](CC(C)C)NC(=O)[C@](C)(CC(C)C)NC(=O)[C@@H](NC(=O)[C@H](CO)NC(=O)[C@H](Cc1ccc(O)cc1)NC(=O)[C@H](CC(=O)O)NC(=O)[C@H](CO)NC(=O)[C@@H](NC(=O)[C@H](Cc1ccccc1)NC(=O)[C@@H](NC(=O)CNC(=O)[C@H](CCC(=O)O)NC(=O)C(C)(C)NC(=O)[C@H](N)Cc1ccc(O)cc1)[C@@H](C)O)[C@@H](C)O)[C@@H](C)CC)[C@@H](C)CC)C(=O)N[C@@H](C)C(=O)NCC(=O)NCC(=O)N1CCC[C@H]1C(=O)N[C@@H](CO)C(=O)N[C@@H](CO)C(=O)NCC(=O)N[C@@H](C)C(=O)N1CCC[C@H]1C(=O)N1CCC[C@H]1C(=O)N1CCC[C@H]1C(=O)N[C@@H](CO)C(N)=O` [Example 369] (H-[dY][Aib]EGTFTSDYSI[αMeL]LD[Orn]K([AEEA-AEEA-γGlu-C20 diacid])AQ[Aib]DFIEYLIAGGPSSGAPPPS-NH2; N-terminus assumed), the EC50 on human GLP-1R [1] was 0.381 nM; in assay [2] it was 0.166 nM; in assay [3], 0.101 nM; on human GLP-1R [4] it was 0.0414 µM. The “hGLP1R B-Arrestin2 % Top” value at human GLP-1R [4] stood at 19.9%.
